Reference: paper PMC3702004, “Comparison of Intake and Systemic Relative Effect Potencies of Dioxin-like Compounds in Female Mice after a Single Oral Dose” (Environmental Health Perspectives, 2013)
Like-named read-outs stand apart in the source and are kept apart here.

How the values were obtained:
[1] = system: Cyp1b1 mRNA in PBLs; assay: Cyp1b1 gene expression in peripheral blood lymphocytes; type: in vivo, female C57BL/6 mice; details: for BMR20TCDD PBLs Cyp1b1 mRNA: 3 days after single oral dose; for REP PBLs Cyp1b1 mRNA: relative to TCDD; for Effect on Cyp1b1 mRNA in PBLs: single oral dose, day 3
Method: (§1) Animals. Eight-week-old female C57BL/6 mice (Harlan laboratories, Venray, the Netherlands) were randomly assigned to treatment groups (six animals per group) and allowed to acclimate for 1.5 weeks. The animals were housed in groups in standard cages and conditions (23 ± 2°C, 50–60% relative humidity, 12-hr dark/light cycle) with free access to food and water. Mice received a single dose of test compound by oral gavage at a dosing volume of 10 mL/kg body weight (BW). Mice treated with corn oil vehicle (10 mL/kg BW) served as controls. For each congener, five different doses were administered, ranging from 0.5–100 μg/kg BW (TCDD) to 5,000–500,000 µg/kg BW (PCB-153). Detailed information on doses is provided in Supplemental Material, Table S1 (http://dx.doi.org/10.1289/ehp.1206336). On day 3 after dosing, animals were euthanized by CO2/O2 asphyxiation, and blood was immediately collected from the abdominal aorta. The liver, thymus, spleen, and adipose tissue were removed, weighed (liver, thymus, and spleen), snap frozen, and stored at –80°C. All animal treatments were performed with permission of the Animal Ethical Committee (DEC Utrecht) and performed according to the [Law on Animal Experiments (1977)]. Animals were treated humanely and with regard for alleviation of suffering.
(§2) Plasma and PBL isolation. Blood from two mice was pooled (total volume of approximately 1.4 mL); plasma and PBLs were then isolated using Ficoll Paque gradient (GE Healthcare Europe, Diegem, Belgium). Plasma samples were stored at –80°C until compound analysis. Isolated lymphocytes were lysed with RLT buffer (QIAGEN, Venlo, the Netherlands) as described in the QIAGEN RNAeasy kit protocol and stored at –80°C until use.
RNA isolation and quantitative real-time polymerase chain reaction (PCR). Total RNA was isolated from liver and PBLs using a QIAGEN RNeasy kit (QIAGEN). Purity and concentration of the isolated RNA was determined by measuring the absorbance ratio at 260/280 nm and 230/260 nm with a Nanodrop 2000 spectrophotometer (Thermo Scientific, Asheville, NC, USA). RNA was reverse transcribed to complementary DNA (cDNA) using the iScript cDNA synthesis Kit (Bio-Rad, Veenendaal, the Netherlands). Quantitative real-time PCR analyses were performed using the iQ Real-Time PCR Detection System with SYBR green (Bio-Rad). Amplification reactions were set up with […] containing 12.5 μL iQ SYBR Green Supermix (Bio-rad), 0.5 μL distilled H2O, 1 μL (10 μM) forward primer, 1 μL (10 μM) reverse primer, and 10 μL first strand cDNA (10X diluted). Primer sequences were as follows: Cyp1a1: forward-5´-GGTTAACCATGACCGGGAACT-3´ and reverse-5´-TGCCCAAACCAAAGAGAGTGA-3´ ([Schulz et al. 2012]); Cyp1a2: forward-5´-ACATTCCCAAGGAGCGCTGTATCT-3´ and reverse-5´-GTCGATGGCCGAGTTGTTATTGGT-3´ ([Flaveny et al. 2010]); Cyp1b1: forward-5´-GTGGCTGCTCATCCTCTTTACC-3´ and reverse-5´-CCCACAACCTGGTCCAACTC-3´ ([Berge et al. 2004]); β-actin: forward-5´-ATGCTCCCCGGGCTGTAT-3´ and reverse-5´-CATAGGAGTCCTTCTGACCCATTC-3´ ([Schulz et al. 2012]). All primers were run through the National Center for Biotechnology Information Primer-BLAST database (http://www.ncbi.nlm.nih.gov/tools/primer-blast/) to confirm specificity and validate for optimal annealing temperature (60°C for all primers) and efficiency. The efficiency of all primer pairs was 98–102% (tested at 60°C). The following program was used for denaturation and amplification of cDNA: 3 min at 95°C, followed by 40 cycles of 15 sec at 95°C and 45 sec at 60°C. Gene expression for each sample was expressed as threshold cycle (Ct), normalized to the reference gene β-actin (ΔCt). We calculated fold induction relative to the control group.
Data analysis. We obtained concentration–response curves using a sigmoidal dose–response nonlinear regression curve fit with variable slope (GraphPad Prism 6.01; GraphPad Software Inc., San Diego, CA, USA): […]

[2] = Compound analysis: liver, adipose and plasma concentrations 3 days after a single oral dose; type: in vivo, female C57BL/6 mice; details: for liver:adipose ratio (hepatic sequestration criterion 0.3) / concentration at 3 days / Adipose % dose / g tissue / Adipose concentration / Liver % dose / g tissue / Liver concentration / Plasma % dose / g tissue / Plasma concentration: 3 days after single oral dose; for liver:adipose ratio (hepatic sequestration criterion 0.3): Table 1 doses; for Liver:adipose ratio: based on ng/g tissue, day 3; for concentration at 3 days: female, C57BL/6, mouse, in vivo, po
Method: as §1
Compound analysis. Adipose and liver tissues samples were homogenized in Na2SO4, followed by extraction and clean-up in one step, and then eluted with 200 mL 1:1 hexane:dichloromethane on an open column packed with 40% wt/wt H2SO4-impregnated silica and KOH-silica. Blood plasma samples were extracted on an open column using Chem-Elut (Agilent Technologies, Santa Clara, CA, USA) and then NaCl eluted with 75 mL 3:2 hexane:2-propanol. Clean-up was performed using a miniaturized silica column (as described above), and samples were eluted using 30 mL hexane. Because the samples typically contained high levels of the analytes, only a small fraction was evaporated and analyzed. Prior to evaporation, we spiked a fraction of the samples with ^13C-labeled standards. We checked potential loss of analytes during extraction and clean-up by reextracting the samples using the identical protocol used for the samples. […] Tetradecane was added prior to evaporation. Sample analysis followed the U.S. Environmental Protection Agency Method 1613 ([U.S. Environmental Protection Agency 1994]) using single ion monitoring mode on an Agilent 6809N gas chromatograph (Agilent Technologies) coupled with a Micromass Ultima Autospec Ultra high-resolution mass spectrometer (HRMS; Waters Corp., Milford, MA, USA). Compounds were separated on a 60 m × 0.25 mm DB5-MS column ([…]; J&W Scientific, Folsom, CA, USA). The HRMS was operated with electron impact ionization with electron energy of 35 eV and an ion source temperature of 250°C. To reduce the number of analyses, samples were pooled before clean-up. […] This method was used because full congener–specific separation could be achieved on the high-resolution GC–HRMS. For lipid determination, samples were evaporated to dryness after the extraction step, and the amount of lipids was determined gravimetrically. Concentrations were calculated based on lipid weight and wet weight. The analysis of samples for the PCB-118 5,000 μg/kg BW dose failed during the procedure; thus analysis for this group could not be completed.
as §2

[3] = dose metric Adm dose (µg/kg BW)
[4] = dose metric Syst plasma (ng/g lipid)
[5] = 0.5 µg/kg bw, oral dose 0.5 µg/kg bw, read-out: Adipose concentration
[6] = 0.5 µg/kg bw, oral dose 0.5 µg/kg bw, read-out: Liver concentration
[7] = 2.5 µg/kg bw, oral dose 2.5 µg/kg bw, read-out: Adipose concentration
[8] = 2.5 µg/kg bw, oral dose 2.5 µg/kg bw, read-out: Liver concentration
[9] = 10 µg/kg bw, oral dose 10 µg/kg bw, read-out: Adipose concentration
[10] = 10 µg/kg bw, oral dose 10 µg/kg bw, read-out: Liver concentration
[11] = 10 µg/kg bw, oral dose 10 µg/kg bw, read-out: Plasma concentration
[12] = 25 µg/kg bw, oral dose 25 µg/kg bw, read-out: Plasma concentration
[13] = 100 µg/kg bw, oral dose 100 µg/kg bw, read-out: Plasma concentration

Row | SMILES | BMR20TCDD PBLs Cyp1b1 mRNA ([1]; dose metric Adm dose) [µg/kg BW] | BMR20TCDD PBLs Cyp1b1 mRNA ([1]; dose metric Syst plasma) [ng/g lipid] | REP PBLs Cyp1b1 mRNA [1, 3] | REP PBLs Cyp1b1 mRNA [1, 4] | Effect on Cyp1b1 mRNA in PBLs [1] | liver:adipose ratio (hepatic sequestration criterion 0.3) [2] | Liver:adipose ratio ([2]; dose 0.5 μg/kg BW) | Liver:adipose ratio ([2]; dose 2.5 μg/kg BW) | Liver:adipose ratio ([2]; dose 10 μg/kg BW) | concentration at 3 days [2, 5] [ng/g] | concentration at 3 days [2, 6] [ng/g] | concentration at 3 days [2, 7] [ng/g] | concentration at 3 days [2, 8] [ng/g] | concentration at 3 days [2, 9] [ng/g] | concentration at 3 days [2, 10] [ng/g] | concentration at 3 days [2, 11] [ng/g] | concentration at 3 days [2, 12] [ng/g] | concentration at 3 days [2, 13] [ng/g] | Adipose % dose / g tissue ([2]; oral dose 0.5 µg/kg bw) [% dose / g tissue] | Adipose concentration ([2]; oral dose 0.5 µg/kg bw) [ng/g lipid] | also measured
1 | Clc1cc2c(cc1Cl)Oc1c(cc(Cl)c(Cl)c1Cl)O2 [PeCDD, 1,2,3,7,8-pentachlorodibenzodioxin] | 51.8 | 63.8 | 0.4 | 0.8 | dose-dependently induced | > 0.3 | 4.4±0.9 | 7.0±1.1 | 6.7±1.4 | 0.9 ± 0.2 | 4 ± 0.7 | 3.8 ± 0.7 | 27 ± 6 | 16 ± 5 | 103 ± 23 | 0.032 | 0.052 | 0.298 | 9.3 | 1.1 ± 0.2 | Liver % dose / g tissue ([2]; oral dose 0.5 µg/kg bw): 40 % dose / g tissue; Liver concentration ([2]; oral dose 0.5 µg/kg bw): 85 ± 14 ng/g lipid; Plasma % dose / g tissue ([2]; oral dose 0.5 µg/kg bw): 0.037 % dose / g tissue; Adipose % dose / g tissue ([2]; oral dose 2.5 µg/kg bw): 7.7 % dose / g tissue; Adipose concentration ([2]; oral dose 2.5 µg/kg bw): 4.3 ± 0.8 ng/g lipid; Liver % dose / g tissue ([2]; oral dose 2.5 µg/kg bw): 54 % dose / g tissue; Liver concentration ([2]; oral dose 2.5 µg/kg bw): 446 ± 96 ng/g lipid; Plasma % dose / g tissue ([2]; oral dose 2.5 µg/kg bw): 0.024 % dose / g tissue; Adipose % dose / g tissue ([2]; oral dose 10 µg/kg bw): 8.0 % dose / g tissue; Adipose concentration ([2]; oral dose 10 µg/kg bw): 19 ± 6 ng/g lipid; Liver % dose / g tissue ([2]; oral dose 10 µg/kg bw): 51 % dose / g tissue; Liver concentration ([2]; oral dose 10 µg/kg bw): 1669 ± 378 ng/g lipid; Plasma % dose / g tissue ([2]; oral dose 10 µg/kg bw): 0.016 % dose / g tissue; Plasma concentration ([2]; oral dose 10 µg/kg bw): 19 ± 7 ng/g lipid; Plasma % dose / g tissue ([2]; oral dose 25 µg/kg bw): 0.010 % dose / g tissue; Plasma concentration ([2]; oral dose 25 µg/kg bw): 30 ± 2 ng/g lipid; Plasma % dose / g tissue ([2]; oral dose 100 µg/kg bw): 0.015 % dose / g tissue; Plasma concentration ([2]; oral dose 100 µg/kg bw): 157 ± 21 ng/g lipid
2 | Clc1cc2c(cc1Cl)Oc1cc(Cl)c(Cl)cc1O2 [TCDD, 2,3,7,8-tetrachlorodibenzodioxin, reference compound] | 20.9 | 53.5 | 1 | 1 | dose-dependently induced | > 0.3 | 1.8±0.2 | 2.9±0.5 | 4.2±0.7 | 1.8 ± 0.4 | 3.3 ± 0.6 | 6.9 ± 1.5 | 20 ± 6 | 21 ± 3 | 85 ± 13 | 0.053 | 0.108 | 0.432 | 18 | 2.1 ± 0.5 | Liver % dose / g tissue ([2]; oral dose 0.5 µg/kg bw): 33 % dose / g tissue; Liver concentration ([2]; oral dose 0.5 µg/kg bw): 62 ± 12 ng/g lipid; Plasma % dose / g tissue ([2]; oral dose 0.5 µg/kg bw): 0.040 % dose / g tissue; Adipose % dose / g tissue ([2]; oral dose 2.5 µg/kg bw): 14 % dose / g tissue; Adipose concentration ([2]; oral dose 2.5 µg/kg bw): 7.6 ± 1.7 ng/g lipid; Liver % dose / g tissue ([2]; oral dose 2.5 µg/kg bw): 40 % dose / g tissue; Liver concentration ([2]; oral dose 2.5 µg/kg bw): 277 ± 83 ng/g lipid; Plasma % dose / g tissue ([2]; oral dose 2.5 µg/kg bw): 0.027 % dose / g tissue; Adipose % dose / g tissue ([2]; oral dose 10 µg/kg bw): 10 % dose / g tissue; Adipose concentration ([2]; oral dose 10 µg/kg bw): 24 ± 4 ng/g lipid; Liver % dose / g tissue ([2]; oral dose 10 µg/kg bw): 43 % dose / g tissue; Liver concentration ([2]; oral dose 10 µg/kg bw): 1152 ± 176 ng/g lipid; Plasma % dose / g tissue ([2]; oral dose 10 µg/kg bw): 0.027 % dose / g tissue; Plasma concentration ([2]; oral dose 10 µg/kg bw): 35 ± 6 ng/g lipid; Plasma % dose / g tissue ([2]; oral dose 25 µg/kg bw): 0.022 % dose / g tissue; Plasma concentration ([2]; oral dose 25 µg/kg bw): 60 ± 3 ng/g lipid; Plasma % dose / g tissue ([2]; oral dose 100 µg/kg bw): 0.022 % dose / g tissue; Plasma concentration ([2]; oral dose 100 µg/kg bw): 240 ± 30 ng/g lipid
